Measured values published in patent publication US8530421B2, “Isolated polypeptides used for treatment of inflammatory diseases and inhibiting cancer metastasis” (Supadelixir Inc., priority 2009, dated 2013).

System: IgE-mediated immediate hypersensitivity reaction-induced mice
Test: IgE-mediated immediate hypersensitivity reaction, ear thickness
Format: in vivo, Balb/c mice
Settings: 100 μg tail vein, then 100 μg intraperitoneally daily from third day; DNFB antigen; 15 days
Protocol: Anti-allergic activity of the polypeptide according to the present invention was investigated. Balb/c mice (about 6 weeks old) were sensitized by injecting IgE antibody (5 μg) through the tail vain thereof. After 24 hours, the protein solution (100 μl) prepared by dissolving the peptide fragment of SEQ ID NO: 13 (100 μg) in PBS (100 μl) was injected through the tail vain of the sensitized mice. A 0.15% DNFB solution [2,4-d]nitrofluorobenzene in aceton: olive oil (4:1)] as an antigen was applied on each ear of the mice so as to induce IgE-mediated immediate hypersensitivity. In case of the negative control mice, only PBS (100 μl) was injected without treating a 0.15% DNFB solution. In case of the positive control mice, PBS (100 μl) was injected and then a 0.15% DNFB solution was treated. The changes in ear thickness were measured with a digital caliper every hour for 12 hours. Every day from the third day, the peptide fragment of SEQ ID NO: 13 (100 μg) was intraperitoneally injected to the test group mice, while only PBS was intraperitoneally injected to the control group mice. The changes in ear thickness were measured for 15 days.
FIG. 12 is the graph obtained by comparing the ear thickness changes of the test group mice and the positive control mice (increased by treating a 0.15% DNFB solution) with those of the negative control.

SEQ ID NO: 13: Leu-Xaa-Asp with Xaa Ala; CD99L2 fragment 121~123, PBDX(or XG) fragment 27~29 (LAD; listed as Homo sapiens)
ear thickness increments relative to the positive control group: remarkably decreased
